Experiments:
pigweed = test: Test B pre-/postemergence herbicide test; type: in vivo, Amaranthus retroflexus; conditions: for Pigweed plant response rating: postemergence, scale 0 (no effect) to 100 (complete control)
Procedure, shortened: (§1)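 Response was scored visually 13 to 15 days after treatment against untreated greenhouse controls, 0 meaning no effect and 100 complete control. Formulations (solvent mixture plus surfactant) went onto soil after planting, onto foliage of 1- to 4-leaf plants, and onto 2-leaf plants in a flooded paddy set including rice and barnyardgrass.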

velvetleaf [1] = test: Test A pre-/postemergence herbicide test; type: in vivo, Abutilon theophrasti
Procedure, shortened: (§2)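 Visual injury scores on a 0–100 scale (100 = complete control) taken about ten days post-treatment in greenhouse against untreated controls; dash means no result. Treatments: preemergence soil spray and postemergence spray to runoff on one- to two-leaf plants 2 to 10 cm tall, surfactant-containing formulation.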

redroot pigweed = test: Test A pre-/postemergence herbicide test; type: in vivo, Amaranthus retroflexus
Procedure, shortened: as §2

blackgrass = test: Test B postemergence herbicide test; type: in vivo, Alopecurus myosuroides; conditions: postemergence, visual rating, scale 0 (no effect) to 100 (complete control)
Procedure, shortened: (§3)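 Plants grow to 1- to 4-leaf stage (2–18 cm) for postemergence spraying, or to 2-leaf stage for the paddy test. Formulated compound is applied. Greenhouse holding lasts 13–15 days. Response is scored visually relative to controls, 0 no effect to 100 complete control; a dash means no result.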

wild oat = test: Test B postemergence herbicide test; type: in vivo, Avena fatua; conditions: postemergence, visual rating, scale 0 (no effect) to 100 (complete control)
Procedure, shortened: (§4)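 Treated at 2-leaf (paddy) or 1–4-leaf, 2–18 cm (postemergence); greenhouse 13–15 d; visual score vs control, 0 none to 100 complete control; dash = not tested.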

barnyardgrass [2] = test: Test B flooded paddy test; type: in vivo, Echinochloa crus-galli; conditions: 1000 g ai/ha, visual rating, scale 0 to 100 (0 no effect, 100 complete control), 13 to 15 days
Procedure, shortened: as §3

cocklebur = test: Test B pre-/postemergence herbicide test; type: in vivo, Xanthium strumarium; conditions: for Cocklebur plant response rating: postemergence, scale 0 (no effect) to 100 (complete control)
Procedure, shortened: (§5)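 Species tested were Echinochloa crus-galli, Ipomoea coccinea, Xanthium strumarium and Oryza sativa, treated both before emergence and at the 1- to 4-leaf stage; rice and barnyardgrass were also tested under flooding at 2 leaves. Greenhouse incubation lasted 13–15 days before visual 0–100 scoring.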

corn = test: Test B pre-/postemergence herbicide test; type: in vivo, Zea mays; conditions: for Corn plant response rating: postemergence, scale 0 (no effect) to 100 (complete control)
Procedure, shortened: as §1

giant foxtail [3] = test: Test A pre-/postemergence herbicide test; type: in vivo, Setaria faberi
Procedure, shortened: as §2

large crabgrass [4] = test: Test A pre-/postemergence herbicide test; type: in vivo, Digitaria sanguinalis
Procedure, shortened: as §2

large crabgrass [5] = test: Test B pre-/postemergence herbicide test; type: in vivo, Digitaria sanguinalis; conditions: for Crabgrass, Large plant response rating: postemergence, scale 0 (no effect) to 100 (complete control)
Procedure, shortened: as §1

wheat = test: Test B postemergence herbicide test; type: in vivo, Triticum aestivum; parameters: key to Wheat plant response rating: 0 = no effect, 100 = complete control; conditions: postemergence, visual rating, scale 0 (no effect) to 100 (complete control)
Procedure, shortened: as §4

lambsquarters = test: Test B pre-/postemergence herbicide test; type: in vivo, Chenopodium album; conditions: for Lambsquarters plant response rating: postemergence, scale 0 (no effect) to 100 (complete control)
Procedure, shortened: as §1

Surinam grass = test: Test B pre-/postemergence herbicide test; type: in vivo, Urochloa decumbens; conditions: for Surinam Grass plant response rating: postemergence, scale 0 (no effect) to 100 (complete control)
Procedure, shortened: as §1

morningglory [6] = test: Test A pre-/postemergence herbicide test; type: in vivo, Ipomoea spp.
Procedure, shortened: as §2

barnyardgrass [7] = test: Test B pre-/postemergence herbicide test; type: in vivo, Echinochloa crus-galli; conditions: for Barnyardgrass plant response rating: postemergence, scale 0 (no effect) to 100 (complete control)
Procedure, shortened: as §5

ducksalad = test: Test B flooded paddy test; type: in vivo, Heteranthera limosa; conditions: 1000 g ai/ha, visual rating, scale 0 to 100 (0 no effect, 100 complete control), 13 to 15 days
Procedure, shortened: as §3

[8] = tested on: small flower umbrella sedge; test: Test B flooded paddy test; type: in vivo, Cyperus difformis; conditions: 1000 g ai/ha, visual rating, scale 0 to 100 (0 no effect, 100 complete control), 13 to 15 days
Procedure, shortened: as §3

rice [9] = test: Test B pre-/postemergence herbicide test; type: in vivo, Oryza sativa; conditions: 0 = no effect, 100 = complete control, preemergence
Procedure, shortened: as §1

giant foxtail [10] = test: Test B pre-/postemergence herbicide test; type: in vivo, Setaria faberi; conditions: for Foxtail, Giant plant response rating: postemergence, scale 0 (no effect) to 100 (complete control)
Procedure, shortened: as §1

barnyardgrass [11] = test: Test A pre-/postemergence herbicide test; type: in vivo, Echinochloa crus-galli
Procedure, shortened: as §2

velvetleaf [12] = test: Test B pre-/postemergence herbicide test; type: in vivo, Abutilon theophrasti; conditions: for Velvetleaf plant response rating: postemergence, scale 0 (no effect) to 100 (complete control)
Procedure, shortened: as §1

rice [13] = test: Test B flooded paddy test; type: in vivo, Oryza sativa; conditions: 1000 g ai/ha, visual rating, scale 0 to 100 (0 no effect, 100 complete control), 13 to 15 days
Procedure, shortened: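 Postemergence plants were sprayed with formulated test chemicals at 2 to 18 cm height (1- to 4-leaf stage); paddy species were grown to the 2-leaf stage. After 13 to 15 days in a greenhouse, injury was rated visually against untreated controls on a 0–100 scale (0 = no effect, 100 = complete control).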

morningglory [14] = test: Test B pre-/postemergence herbicide test; type: in vivo, Ipomoea coccinea; conditions: for Morningglory plant response rating: postemergence, scale 0 (no effect) to 100 (complete control)
Procedure, shortened: as §5

[15] = 125 g ai/ha, 0 = no effect, 100 = complete control, preemergence
[16] = 500 g ai/ha, visual rating, 0 = no effect, 100 = complete control, preemergence
[17] = Postemergence, 500 g ai/ha, 0 to 100 scale, 0 no effect, 100 complete control
[18] = Postemergence, 2000 g ai/ha, 0 to 100 scale, 0 no effect, 100 complete control
[19] = Preemergence, 2000 g ai/ha, visual rating, 0 to 100 scale (0 no effect, 100 complete control)
[20] = preemergence, 500 g ai/ha, visual injury, 0 to 100 scale (0 no effect, 100 complete control)

C#CCNC(=O)c1cccc(NC(=O)c2sc(C(C)(C)C)nc2CC)n1 [Compound 217]
40: Pigweed plant response rating (redroot pigweed; [19])
25: Plant response rating, Pigweed (redroot pigweed; [18]) | Plant response rating, Morningglory (morningglory [6]; [18])
20: Plant response rating, Crabgrass, Large (large crabgrass [4]; [18])
0: Pigweed plant response rating (0 to 100 scale) (pigweed; [15]) | Plant response rating, Pigweed (pigweed; [16]) | Pigweed plant response rating (pigweed; 125 g ai/ha, visual rating) | Pigweed plant response rating (pigweed; 500 g ai/ha, visual rating) | Velvetleaf plant response rating (velvetleaf [1]; [20]) | Pigweed plant response rating (redroot pigweed; [20]) | Blackgrass plant response rating (blackgrass; 125 g ai/ha) | Blackgrass plant response rating (blackgrass; 500 g ai/ha) | Oat, Wild plant response rating (wild oat; 125 g ai/ha) | Oat, Wild plant response rating (wild oat; 500 g ai/ha) | Barnyardgrass plant response rating (barnyardgrass [2]) | Cocklebur plant response rating (0 to 100 scale) (cocklebur; [15]) | Plant response rating, Cocklebur (cocklebur; [16]) | Cocklebur plant response rating (cocklebur; 125 g ai/ha, visual rating) | Cocklebur plant response rating (cocklebur; 500 g ai/ha, visual rating) | Corn plant response rating (0 to 100 scale) (corn; [15]) | Plant response rating, Corn (corn; [16]) | Corn plant response rating (corn; 125 g ai/ha, visual rating) | Corn plant response rating (corn; 500 g ai/ha, visual rating) | Foxtail, Giant plant response rating (giant foxtail [3]; [17]) | Plant response rating, Foxtail, Giant (giant foxtail [3]; [18]) | Foxtail, Giant plant response rating (giant foxtail [3]; [20]) | Crabgrass, Large plant response rating (large crabgrass [4]; [17]) | Crabgrass, Large plant response rating (large crabgrass [4]; [20]) | Crabgrass, Large plant response rating (0 to 100 scale) (large crabgrass [5]; [15]) | Plant response rating, Crabgrass, Large (large crabgrass [5]; [16]) | Crabgrass, Large plant response rating (large crabgrass [5]; 125 g ai/ha, visual rating) | Crabgrass, Large plant response rating (large crabgrass [5]; 500 g ai/ha, visual rating) | Wheat plant response rating (wheat; 125 g ai/ha) | Wheat plant response rating (wheat; 500 g ai/ha) | Lambsquarters plant response rating (0 to 100 scale) (lambsquarters; [15]) | Plant response rating, Lambsquarters (lambsquarters; [16]) | Lambsquarters plant response rating (lambsquarters; 125 g ai/ha, visual rating) | Lambsquarters plant response rating (lambsquarters; 500 g ai/ha, visual rating) | Surinam Grass plant response rating (0 to 100 scale) (Surinam grass; [15]) | Plant response rating, Surinam Grass (Surinam grass; [16]) | Surinam Grass plant response rating (Surinam grass; 125 g ai/ha, visual rating) | Morningglory plant response rating (morningglory [6]; [19]) | Morningglory plant response rating (morningglory [6]; [20]) | Barnyardgrass plant response rating (0 to 100 scale) (barnyardgrass [7]; [15]) | Plant response rating, Barnyardgrass (barnyardgrass [7]; [16]) | Barnyardgrass plant response rating (barnyardgrass [7]; 125 g ai/ha, visual rating) | Barnyardgrass plant response rating (barnyardgrass [7]; 500 g ai/ha, visual rating) | Ducksalad plant response rating (ducksalad) | Sedge, Umbrella plant response rating [8] | Rice plant response rating (0 to 100 scale) (rice [9]; 125 g ai/ha) | Plant response rating, Rice (rice [9]; 500 g ai/ha, visual rating) | Foxtail, Giant plant response rating (0 to 100 scale) (giant foxtail [10]; [15]) | Plant response rating, Foxtail, Giant (giant foxtail [10]; [16]) | Foxtail, Giant plant response rating (giant foxtail [10]; 125 g ai/ha, visual rating) | Foxtail, Giant plant response rating (giant foxtail [10]; 500 g ai/ha, visual rating) | Barnyardgrass plant response rating (barnyardgrass [11]; [17]) | Plant response rating, Barnyardgrass (barnyardgrass [11]; [18]) | Barnyardgrass plant response rating (barnyardgrass [11]; [19]) | Barnyardgrass plant response rating (barnyardgrass [11]; [20]) | Velvetleaf plant response rating (0 to 100 scale) (velvetleaf [12]; [15]) | Plant response rating, Velvetleaf (velvetleaf [12]; [16]) | Velvetleaf plant response rating (velvetleaf [12]; 125 g ai/ha, visual rating) | Rice plant response rating (rice [13]) | Morningglory plant response rating (0 to 100 scale) (morningglory [14]; [15]) | Plant response rating, Morningglory (morningglory [14]; [16]) | Morningglory plant response rating (morningglory [14]; 125 g ai/ha, visual rating)
5: Velvetleaf plant response rating (velvetleaf [1]; [17]) | Velvetleaf plant response rating (velvetleaf [1]; [19])
15: Morningglory plant response rating (morningglory [6]; [17])
10: Pigweed plant response rating (redroot pigweed; [17]) | Foxtail, Giant plant response rating (giant foxtail [3]; [19]) | Crabgrass, Large plant response rating (large crabgrass [4]; [19]) | Surinam Grass plant response rating (Surinam grass; 500 g ai/ha, visual rating) | Velvetleaf plant response rating (velvetleaf [12]; 500 g ai/ha, visual rating) | Morningglory plant response rating (morningglory [14]; 500 g ai/ha, visual rating)
30: Plant response rating, Velvetleaf (velvetleaf [1]; [18])
